According to patent US10253002B2, “Compounds and methods of treating infections” (Neoculi Pty Ltd., priority 2013, dated 2019):
Values after ≈ are worked out from the molar mass of the structure shown. Values joined by “and” are separate entries in the source; they are usually repeats but may differ in a detail not shown here. Equal entries are not always repeated. Where two headings read alike, the source gives them in different places.

Assays:
[1] = tested on: vancomycin-resistant Enterococcus spp. (VRE); experiment: Broth microdilution MIC (CLSI), Example 1; format: cell-based
Method: Cation adjusted Mueller Hinton Broth (CAMHB) was prepared using 100 mL sterile Mueller Hinton broth (pH adjusted). To each 100 mL volume, 125 μL of calcium stock solution (10 mg Ca^2+ per ml) and 43 μL magnesium stock solution (10 mg Mg^2+ per mL) was aseptically added. Sufficient broth is made up for daily use, with unused portions being stored at 4° C. overnight.
Potency was described as 1000 mg/g or 100%. The powder was dissolved in 10 mL DMSO and 1 mL volumes were aliquoted into eppendorf tubes and stored at −80° C.
Serial dilutions were prepared in 96 well plates were set up in a safety cabinet according to methods standard in the art. Briefly: 90 μL of the working antibiotic solution was added to each well in Column 12 of the plate, and mixed well, before 90 μL was transferred to column 11. The solutions were mixed again, and then transferred to the next column as before, continuing the dilutions through to column 3. Mixing the well requires the pick up and expulsion of 90 μL in each well 3-4 times before picking up and transferring the 90 μL to the next well. […] The trays were set up as follows: 2 strains were tested in duplicate in one tray, such that strain 1 was located in rows A to D, strain 2 was located in rows E to H, etc.
Fresh cultures of bacteria were prepared for testing on sheep blood agar (SBA), and overnight incubation at 37° C. as follows; 2-3 colonies of each strain in 7 mL sterile saline, and the OD600 measured as an indication of the density (approx. […] or 0.5 McFarland Standard). The bacterial suspension was adjusted to a final absorbance of 0.08 to 0.100, using saline to achieve correct density, and as the blank. Within 15 minutes of preparation, the adjusted bacterial suspension with sterile saline 1:20 (1 mL into 19 mL sterile saline) to achieve a final bacterial concentration of 4 to 5×10^6 CFU/mL. The bacterial solution was placed into a sterile trough and 10 μL of bacterial solution added into wells 2 through to 12 on each required row (dilution of 1:10, with final concentration of bacteria in wells=5×10^5 CFU/mL). The tray was sealed and incubated at 37° C. for 18-24 h. The purity of bacterial suspension was confirmed by streaking out 50 μL of the 1:20 dilution onto a SBA plate, which was incubated for 37° C. for 18 h and examined. Viable counts were carried out to ensure that the correct concentration of bacteria and been added to the wells. The diluted bacterial solution (4 to 5×10^6 CFU/mL) was diluted 1:10 downwards by adding 100 μL to 900 μL of sterile saline in sterile tubes, and the serial dilutions continued 1:10 for 5 tubes. 100 μL (4-5 drops) of the 4th and 5th dilutions (tube 4=105 and tube 5=10^6 CFU/ml) was plated around in duplicate on pre-dried PCA agar plates and incubated at 37° C. overnight. The following day the number of colonies on the plates was counted and the average count in 100 μL obtained. The study was multiplied by 10 to obtain a viable bacterial count per mL.
Minimum inhibitory concentrations (μg/mL) were determined using the broth microdilution method recommended by the Clinical and Laboratory Standards Institute (CLSI) (Methods for Dilution Antimicrobial Susceptibility Tests for Bacteria That Grow Aerobically; Approved Standard—Seventh Edition. CLSI M7-A7, 2006; Performance Standards for Antimicrobial Disk and Dilution Susceptibility Tests for Bacteria Isolated from Animals; Approved Standard—Second Edition. CLSI M31-A2, 2002; Performance Standards for Antimicrobial Susceptibility Testing; CLSI M2-A9, 2006).
MIC breakpoints were determined by visual assessment and then confirmed using an ELISA plate reader, measuring absorbance levels at 450 nm. Bacterial growth (turbidity) in the wells with antimicrobial was compared with the amount of growth (turbidity) in the growth-control well (containing no antimicrobial).

[2] = tested on: Staphylococcus aureus T3-129 / Staphylococcus spp. MK1; experiment: Synergy studies, checkerboard method (FIC index); format: cell-based
[3] = Enterococcus isolates of Table 4, Test 2
[4] = Enterococcus, VRE, B09/2087, Test 1, read-out: MIC
[5] = Enterococcus, VRE, Enterococcus 011, Test 1, read-out: MIC
[6] = Enterococcus, VRE, Enterococcus 012, Test 1, read-out: MIC
[7] = Enterococcus, VRE, Enterococcus 012, Test 2, read-out: MIC
[8] = Enterococcus, VRE, Enterococcus 013, Test 1, read-out: MIC
[9] = Enterococcus, VRE, Enterococcus 013, Test 2, read-out: MIC
[10] = Enterococcus, VRE, VRE 001, Test 1, read-out: MIC
[11] = Enterococcus, VRE, VRE 001, Test 2, read-out: MIC
[12] = Enterococcus, VRE, VRE 003, Test 1, read-out: MIC
[13] = Enterococcus, VRE, VRE 003, Test 2, read-out: MIC
[14] = Enterococcus, VRE, VRE 005, Test 1, read-out: MIC
[15] = Enterococcus, VRE, VRE 005, Test 2, read-out: MIC
[16] = Enterococcus, VRE, VRE 006, Test 1, read-out: MIC
[17] = Enterococcus, VRE, VRE 006, Test 2, read-out: MIC

CC1(C)S[C@@H]2[C@H](NC(=O)[C@H](N)c3ccccc3)C(=O)N2[C@H]1C(=O)O [Ampicillin]
MIC range ([1]; E. faecalis, 4 isolates): 1 mg/L (≈ 2.86 µM)
MIC50 ([1]; E. faecium, 16 isolates): 1 mg/L (≈ 2.86 µM)
MIC range ([1]; E. faecium, 16 isolates): 1 mg/L (≈ 2.86 µM)
MIC90 ([1]; E. faecium, 16 isolates, read-out: MIC90): 2 mg/L (≈ 5.72 µM)
MIC ([1]; E. faecium, 16 isolates, read-out: MIC mode): 1 mg/L (≈ 2.86 µM)
MIC ([1]; Enterococcus faecalis strain ATCC 29212, read-out: MIC of control strain (internal quality control)): 1 mg/L
MIC90 [1, 3]: 2 mg/L (≈ 5.72 µM)
MIC ([1]; Enterococcus, ATCC 29212 / VRE, Enterococcus spp. ATCC 29212, Test 1, read-out: MIC): 1 mg/L (≈ 2.86 µM)
MIC ([1]; Enterococcus, ATCC 29212 / VRE, Enterococcus spp. ATCC 29212, Test 2, read-out: MIC): 1 mg/L (≈ 2.86 µM)
MIC ([1]; Enterococcus, VRE, 20 isolates, read-out: MIC mode): 1 mg/L (≈ 2.86 µM)
MIC ([1]; Enterococcus, VRE, B09/2021, Test 1, read-out: MIC): 1 mg/L (≈ 2.86 µM)
MIC ([1]; Enterococcus, VRE, B09/2021, Test 2, read-out: MIC): 1 mg/L (≈ 2.86 µM)
MIC ([1]; Enterococcus, VRE, B09/2032, Test 1, read-out: MIC): 2 mg/L (≈ 5.72 µM)
MIC ([1]; Enterococcus, VRE, B09/2032, Test 2, read-out: MIC): 2 mg/L (≈ 5.72 µM)
MIC [1, 4]: 2 mg/L (≈ 5.72 µM)
MIC ([1]; Enterococcus, VRE, B09/2087, Test 2, read-out: MIC): 1 mg/L (≈ 2.86 µM)
MIC ([1]; Enterococcus, VRE, B09/2088, Test 1, read-out: MIC): 1 mg/L (≈ 2.86 µM)
MIC ([1]; Enterococcus, VRE, B09/2088, Test 2, read-out: MIC): 1 mg/L (≈ 2.86 µM)
MIC ([1]; Enterococcus, VRE, B09/2121, Test 1, read-out: MIC): 1 mg/L (≈ 2.86 µM)
MIC ([1]; Enterococcus, VRE, B09/2121, Test 2, read-out: MIC): 1 mg/L (≈ 2.86 µM)
MIC ([1]; Enterococcus, VRE, B09/2192, Test 1, read-out: MIC): 1 mg/L (≈ 2.86 µM)
MIC ([1]; Enterococcus, VRE, B09/2192, Test 2, read-out: MIC): 1 mg/L (≈ 2.86 µM)
MIC ([1]; Enterococcus, VRE, Enterococcus 008, Test 1, read-out: MIC): 1 mg/L (≈ 2.86 µM)
MIC ([1]; Enterococcus, VRE, Enterococcus 008, Test 2, read-out: MIC): 1 mg/L (≈ 2.86 µM)
MIC ([1]; Enterococcus, VRE, Enterococcus 009, Test 1, read-out: MIC): 1 mg/L (≈ 2.86 µM)
MIC ([1]; Enterococcus, VRE, Enterococcus 009, Test 2, read-out: MIC): 1 mg/L (≈ 2.86 µM)
MIC ([1]; Enterococcus, VRE, Enterococcus 010, Test 1, read-out: MIC): 2 mg/L (≈ 5.72 µM)
MIC ([1]; Enterococcus, VRE, Enterococcus 010, Test 2, read-out: MIC): 2 mg/L (≈ 5.72 µM)
MIC [1, 5]: 1 mg/L (≈ 2.86 µM)
MIC ([1]; Enterococcus, VRE, Enterococcus 011, Test 2, read-out: MIC): 1 mg/L (≈ 2.86 µM)
MIC [1, 6]: 0.5 mg/L (≈ 1.43 µM)
MIC [1, 7]: 0.5 mg/L (≈ 1.43 µM)
MIC [1, 8]: 2 mg/L (≈ 5.72 µM)
MIC [1, 9]: 2 mg/L (≈ 5.72 µM)
MIC ([1]; Enterococcus, VRE, Enterococcus 014, Test 1, read-out: MIC): 1 mg/L (≈ 2.86 µM)
MIC ([1]; Enterococcus, VRE, Enterococcus 014, Test 2, read-out: MIC): 1 mg/L (≈ 2.86 µM)
MIC [1, 10]: 0.5 mg/L (≈ 1.43 µM)
MIC [1, 11]: 0.5 mg/L (≈ 1.43 µM)
MIC ([1]; Enterococcus, VRE, VRE 002, Test 1, read-out: MIC): 1 mg/L (≈ 2.86 µM)
MIC ([1]; Enterococcus, VRE, VRE 002, Test 2, read-out: MIC): 1 mg/L (≈ 2.86 µM)
MIC [1, 12]: 0.5 mg/L (≈ 1.43 µM)
MIC [1, 13]: 0.5 mg/L (≈ 1.43 µM)
MIC ([1]; Enterococcus, VRE, VRE 004, Test 1, read-out: MIC): 1 mg/L (≈ 2.86 µM)
MIC ([1]; Enterococcus, VRE, VRE 004, Test 2, read-out: MIC): 1 mg/L (≈ 2.86 µM)
MIC [1, 14]: 1 mg/L (≈ 2.86 µM)
MIC [1, 15]: 1 mg/L (≈ 2.86 µM)
MIC [1, 16]: 1 mg/L (≈ 2.86 µM)
MIC [1, 17]: 1 mg/L (≈ 2.86 µM)
MIC ([1]; Enterococcus, VRE, VRE 007, Test 1, read-out: MIC): 1 mg/L (≈ 2.86 µM)
MIC ([1]; Enterococcus, VRE, VRE 007, Test 2, read-out: MIC): 1 mg/L (≈ 2.86 µM)
MIC50 ([1]; Enterococcus, VRE, 20 isolates): 1 mg/L (≈ 2.86 µM)
MIC90 ([1]; VRE, 20 isolates): 2 mg/L (≈ 5.72 µM)
MIC90 ([1]; VRE, Enterococcus isolates of Table 4, Test 1, read-out: MIC90): 2 mg/L (≈ 5.72 µM)
FICI ([2]; S. aureus strain T3-29, FIC index of antibiotic with NCL812): 0.75 and 0.53
FIC1 ([2]; S. aureus strain T3-29, MIC of antibiotic in combination with NCL812/MIC of antibiotic alone): 0.5
Result (interaction with NCL812) ([2]; S. aureus strain T3-29, antibiotic with NCL812): NE (No effect (NE) was defined as 0.5<FICI<4)

N=C(N/N=C/c1ccc(Cl)cc1)N/N=C/c1ccc(Cl)cc1 [NCL812, 1,3-bis[(E)-(4-chlorophenyl)methyleneamino]guanidine]
MIC range ([1]; E. faecalis, 4 isolates): 2 to 4 mg/L
MIC range ([1]; E. faecium, 16 isolates): 2 to 4 mg/L
MIC90 ([1]; Enterococcus isolates of Table 4, Test 1): 4 mg/L (≈ 12 µM)
MIC90 [1, 3]: 4 mg/L (≈ 12 µM)
MIC [1, 4]: 2 mg/L (≈ 5.98 µM)
MIC [1, 5]: 2 mg/L (≈ 5.98 µM)
MIC [1, 6]: 2 mg/L (≈ 5.98 µM)
MIC [1, 7]: 2 mg/L (≈ 5.98 µM)
MIC [1, 8]: 2 mg/L (≈ 5.98 µM)
MIC [1, 9]: 2 mg/L (≈ 5.98 µM)
MIC [1, 10]: 2 mg/L (≈ 5.98 µM)
MIC [1, 11]: 2 mg/L (≈ 5.98 µM)
MIC [1, 12]: 2 mg/L (≈ 5.98 µM)
MIC [1, 13]: 2 mg/L (≈ 5.98 µM)
MIC [1, 14]: 2 mg/L (≈ 5.98 µM)
MIC [1, 15]: 2 mg/L (≈ 5.98 µM)
MIC [1, 16]: 2 mg/L (≈ 5.98 µM)
MIC [1, 17]: 2 mg/L (≈ 5.98 µM)
FIC2 ([2]; MIC of NCL812 in combination with Chloramphenicol/MIC of NCL812 alone, S. aureus strain T3-29): 0.25 and 0.5
FIC2 ([2]; MIC of NCL812 in combination with Erythromycin/MIC of NCL812 alone, S. aureus strain T3-29): 0.5 and 0.25
FIC2 ([2]; MIC of NCL812 in combination with Penicillin G/MIC of NCL812 alone, Staphylococcus spp. Strain MK1): 0.5
FIC2 ([2]; MIC of NCL812 in combination with Sulfamethoxazole/MIC of NCL812 alone, Staphylococcus spp. Strain MK1): 0.25 and 0.5
NCL812 MIC Alone ([2]; Staphylococcus spp. Strain MK1, NCL812 alone): 2 mg/L
NCL812 MIC With Antibiotic ([2]; with Erythromycin, S. aureus strain T3-29): 2 mg/L
NCL812 MIC With Antibiotic ([2]; with Penicillin G, Staphylococcus spp. Strain MK1): 2 mg/L
NCL812 MIC With Antibiotic ([2]; with Sulfamethoxazole, Staphylococcus spp. Strain MK1): 1 mg/L and 2 mg/L
